Holding throughout (assay): cells
Holding throughout (parameters): Anti-proliferation, 10-point dose response, CellTiter-Glo luminescence (MTT stated for KM12(Luc)), GI50 fitted in Prism
(In general: Cellular ATP, detected with luciferase, serves as a proxy for viable cell number.)

In assay [1] the test system is SK-MEL-30. The note with it: Homo sapiens, SK-MEL-30, 72 h, read-out: GI50 (µM) a. The procedure:
(§1) To obtain the GI50 value of a substance, cell viability was measured using MTT (G4000, Promega, USA) for KM12(Luc) cell and Cell titer glo (G7572, Promega, USA) for other cell lines. For adherent cells, cells were seeded at 5,000 cells/well in a 96-well plate and treated with a substance one day after cell seeding. For suspension cells, 10,000 cells/well were seeded and the substance was treated after 4 h stabilization of cells. The substance was treated at 10 points of 1:3 serial dilution (0–100 µmol/L) for 72 h. For MTT assay, 15 µL dye solution was added to each well and incubated 4 h at 37°C. 100 µL of solubilization solution was added and followed 1 hr incubation. Absorbance at 570 nm of each well was recorded using EnVision microplate reader (Perkin Elmer). For Cell titer glo assay, Cell titer glo reagent was treated in each well and measured the luminescence by EnVision microplate reader (Perkin Elmer). Viable cells in each well were normalized by using 0.5% DMSO-treated wells (100%). The inhibitor dose−response curve was fitted and GI50 values were calculated using Prism 7.0 software (GraphPad). All assays were performed in duplicate and the standard deviation (SD) was determined from two independent experiments. KM12(Luc) was purchased from the JCRB cell bank. KM12 (Luc) was used within 6 months after purchase and the DNA profiles were confirmed using a short tandem repeat (STR) analysis by the Korean Cell Line Bank. KM12(Luc) cells were maintained in DMEM supplemented with 10% FBS and antibiotics. Parental Ba/F3 cells were purchased from DSMZ and were grown in RPMI1640 supplemented with 10% FBS and antibiotics in the presence of IL3, Transformed Ba/F3 cell lines were grown in the same media without IL3. Cells used in this study were negative for mycoplasma contamination. AN3-CA, HEC1A, U138, 8505C, MKN28, MKN45, A172, A375, Capan-1 HeLa, HEP3B, MCF-7 and MIA-paca-2 cells were maintained in DMEM (Welgene, Korea) supplemented with 10% FBS and antibiotics (Welgene, Korea). Otherwise, all cells were maintained in RPMI (Welgene, Korea) supplemented with 10% FBS and antibiotics (Welgene, Korea). To identify AZD4547 sensitive cell lines other than FGFR-mutant driven cancer cells, GI50 values were determined for AZD4547 against 64 different cancer cell lines, including AN3-CA used as a positive control ( Figure 1A and Table S1 ). […] Also, inhibitory activity of AZD4547 against DDR1 or FLT3 allows suppression of proliferation of U-2-OS and MV4-11 ([43]). Therefore, our attention focused on the inhibitory activity of AZD4547 against KM12(Luc) cell lines which have the TPM3-NTRK1 fusion gene. To exclude the possibility that the anti-proliferation activity of AZD4547 against KM12(Luc) is a common characteristic of FGFR inhibitors, we determined if BGJ398, a representative FGFR inhibitor, is also capable of suppressing proliferation of KM12(Luc) cells ( Figure 1B ).

For assay [2], the system named is HL-60. Particulars: Homo sapiens, HL-60, 72 h, read-out: GI50 (µM) a. The procedure: as §1
Assay [3] has as its system U-87-MG. The note with it: Homo sapiens, U-87 MG, 72 h, read-out: GI50 (µM) a. The procedure:
as §1

Assay [4] has as its system K-562. The note with it: Homo sapiens, K562, 72 h, read-out: GI50 (µM) a. The method, then: as §1
For assay [5], the system named is U937. Particulars: Homo sapiens, U-937, 72 h, read-out: GI50 (µM) a. The procedure: as §1
Assay [6] concerns HeLa. The note with it: Homo sapiens, HeLa, 72 h, read-out: GI50 (µM) a. The procedure: as §1
The test system of assay [7] is HCT15. Particulars: Homo sapiens, HCT-15, 72 h, read-out: GI50 (µM) a. The method, then:
as §1

Assay [8] has as its system SW480. Particulars: Homo sapiens, SW480, 72 h, read-out: GI50 (µM) a. The procedure:
as §1

In assay [9] the test system is SNU484. Particulars: SNU-484, 72 h, read-out: GI50 (µM) a. The procedure: as §1
Assay [10] concerns HCT-116. The note with it: Homo sapiens, HCT-116, 72 h, read-out: GI50 (µM) a. The method, then:
as §1

The test system of assay [11] is MOLT-4. Particulars: Homo sapiens, MOLT-4, 72 h, read-out: GI50 (µM) a. The procedure:
as §1

Assay [12] relates to HCC-78. The note with it: Homo sapiens, HCC78, 72 h, read-out: GI50 (µM) a. The procedure:
as §1

In publication PMC8591201, “Anti-Tumor Activity of AZD4547 Against NTRK1 Fusion Positive Cancer Cells Through Inhibition of NTRKs” (Frontiers in Oncology, 2021) one finds GI50 data, which are given here for 1 compound.

Molecules are shown by their SMILES.

On to `COc1cc(CCc2cc(NC(=O)c3ccc(N4C[C@@H](C)N[C@@H](C)C4)cc3)n[nH]2)cc(OC)c1` [AZD4547], for which the GI50 was determined as 16.5 µM in assay [1]; 9.31 µM in assay [2]; 8.94 µM in assay [3]; 17.1 µM in assay [4]; 12.2 µM in [5]; 4.38 µM in [6]. The GI50 in [7] amounted to 15.8 µM; in [8], 14.1 µM; in assay [9], 24.6 µM; in [10] it was 7.13 µM; in assay [11], 6.59 µM; in assay [12], 7.17 µM.

Broadly, the GI50 is the concentration that inhibits growth by half.
